Source: patent US20070122830A1, “Prohibitin-directed diagnostics and therapeutics for cancer and chemotherapeutic drug resistance” (Aurelium BioPharma Inc., priority 2005, published 2007)
Where two headings read alike, the source gives them in different places.

Assays:
Assay type in all cases: cell-based, human
[1] = system: MCF-7 Breast Cancer Cell Line; test: MTT cytotoxicity assay, transfected MCF-7 cells plus chemotherapeutic drug; settings: for sensitivity to drug of prohibitin siRNA treated cells: MCF-7, FIGS. 15A-15H; for EC50 / fold change of EC50, Prohibitin vs Control: MCF-7 cells, Table 9; for fold change of EC50, Prohibitin vs Control: direction IS/IR in same cell (E42)
Description: (§1) For a typical siRNA transfection, 1 nmole of the annealed siRNA duplex was mixed with 1.4 ml of Opti-MEM reagent (Invitrogen). In another tube, […] of Oligofectamine reagent (Invitrogen, Carlsbad, Calif.) was mixed with […] of Opti-MEM. The two solutions were combined and mixed gently by inversion and incubated for 20 min. at RT. The resulting solution was added to the cultured cells drop by drop in a 10 cm dish (cells are approximately 40-50% confluent). The next day the transfected cells were trypsinized and seeded in 6 or 96-well plates and further incubated for the indicated amount of time (assay dependent) before further analysis.
(§2) Cell survival was determined using the MTT cytotoxicity assay (see, e.g., Tokuyama et al. (2005) Anticancer Res. 25(1A): 17-22). RNA-transfected cells were seeded in triplicate into 96-well plates at 5×10^3 cells/well 48 hrs post-transfection. The cells were incubated for an additional 16 to 24 hrs before they were exposed to increasing concentrations of cytotoxic drugs. Doxorubicin (adriamycin), cisplatinum, taxol, vinblastin, vincristin, and mitoxantrone were all purchased from Sigma Corp. (St. Louis, Mo.). […] Appropriate dilutions were made in the respective media for each cell line. Following addition of drugs, incubation was continued for an additional 72 hrs. […] of MTT dye (5 mg/ml) were added into each well and the plate was further incubated at 37° C. for 4 hrs. The dye was solubilized with 10% Triton X-100, 0.01 N HCl and further incubated at 37° C. in the dark for 30 min. Cell viability was determined by measure of absorption at 570 nm in a Wallac multiwell plate reader (PerkinElmer, Inc., Boston, Mass.). The averages of triplicate wells were plotted using the Prism software (GraphPad Software, Inc., San Diego, Calif.).
Cell survival was determined as described in Example 3 above.

[2] = system: SKOV3 Ovarian Cancer Cell Line; test: MTT cytotoxicity assay, transfected SKOV3 cells plus chemotherapeutic drug; settings: for IC50: Homo sapiens, SK-OV-3, SKOV3 cells, mock-transfected control, read-out: EC50, Control; for EC50 / fold change of EC50, Prohibitin vs Control: SKOV3 cells; for EC50: prohibitin (siRNA) transfected, read-out: EC50, Prohibitin; for fold change of EC50, Prohibitin vs Control: direction IS/IR in same cell (E54)
Description: as §1
as §2, with “RNA-transfected” for “Cell survival was determined using the MTT cytotoxicity assay (see, e.g., Tokuyama et al. (2005) Anticancer Res. 25(1A): 17-22). RNA-transfected”, “drugs.” for “drugs. Doxorubicin (adriamycin), cisplatinum, taxol, vinblastin, vincristin, and mitoxantrone were all purchased from Sigma Corp. (St. Louis, Mo.).”
Each table summarizes the results of an individual experiment performed in triplicate.

[3] = system: MDA Breast Cancer Cell Line; test: MTT cytotoxicity assay, transfected MDA cells plus chemotherapeutic drug; settings: for IC50: Homo sapiens, mock-transfected control, read-out: EC50, Control; for IC50 / EC50 / fold change of EC50, Prohibitin vs Control: MDA cells; for EC50: prohibitin (siRNA) transfected, read-out: EC50, Prohibitin
Description: as §1
as §2, with “RNA-transfected” for “Cell survival was determined using the MTT cytotoxicity assay (see, e.g., Tokuyama et al. (2005) Anticancer Res. 25(1A): 17-22). RNA-transfected”, “drugs.” for “drugs. Doxorubicin (adriamycin), cisplatinum, taxol, vinblastin, vincristin, and mitoxantrone were all purchased from Sigma Corp. (St. Louis, Mo.).”

[4] = prohibitin (siRNA) transfected, read-out: EC50, Prohibitin
[5] = Table 3 experiment, direction IS/IR in same cell (E6)
[6] = Table 4 experiment, direction IS/IR in same cell (E12)
[7] = Table 7 experiment, direction IS/IR in same cell (E30)
[8] = Table 8 experiment, direction IS/IR in same cell (E36)

| Structure (SMILES) | sensitivity to drug of prohibitin siRNA treated cells [1] | EC50 [1, 4] | fold change of EC50, Prohibitin vs Control [1] | IC50 ([2]; Table 10 experiment) | IC50 ([2]; Table 11 experiment) | EC50 ([2]; Table 10 experiment) | EC50 ([2]; Table 11 experiment) | fold change of EC50, Prohibitin vs Control ([2]; Table 11 experiment) | IC50 ([3]; Table 3 experiment) | IC50 ([3]; Table 4 experiment) | IC50 ([3]; Table 7 experiment) | IC50 ([3]; Table 8 experiment) | EC50 ([3]; Table 3 experiment) | EC50 ([3]; Table 4 experiment) | EC50 ([3]; Table 7 experiment) | EC50 ([3]; Table 8 experiment) | fold change of EC50, Prohibitin vs Control [3, 5] | fold change of EC50, Prohibitin vs Control [3, 6] | fold change of EC50, Prohibitin vs Control [3, 8] | sensitivity to drug of prohibitin siRNA treated cells compared to mock controls ([3]; MDA, FIGS. 14A-14H) | other results |
| --- | --- | --- | --- | --- | --- | --- | --- | --- | --- | --- | --- | --- | --- | --- | --- | --- | --- | --- | --- | --- | --- |
| O=C1c2c(O)ccc(O)c2C(=O)c2c(NCCNCCO)ccc(NCCNCCO)c21 [Mitoxantrone] | more sensitive | 3.94 nM | 2.2 x | 0.801 nM | 0.147 nM | 0.358 nM | 0.118 nM | 1.2 x | 0.11 nM | 0.0961 nM | 44.1 nM | 40.9 nM | 0.173 nM | 0.409 nM | 27.6 nM | 26.6 nM | 1.6 x | 4.2 x | 1.5 x | more sensitive | fold change of EC50, Prohibitin vs Control [3, 7]: 1.6 x; sensitivity to drug of prohibitin siRNA treated cells compared to mock controls ([3]; MDA, FIGS. 13A-13H): increased the sensitivity |
| N[C@@H](Cc1ccc(N(CCCl)CCCl)cc1)C(=O)O [Melphalan] | more sensitive | – | 1.4 x | 5790 nM | 5950 nM | 4540 nM | 4560 nM | 1.3 x | 60100 nM | 36100 nM | 24800 nM | 35400 nM | 39000 nM | 41000 nM | 23800 nM | 19100 nM | 1.5 x | 1.1 x | 1.8 x | more sensitive | EC50 ([1]; Homo sapiens, MCF7, mock-transfected control, read-out: EC50, Control): 14700 nM; EC50 ([1]; Homo sapiens, MCF7, prohibitin (siRNA) transfected, read-out: EC50, Prohibitin): 10500 nM; sensitivity to drug of prohibitin siRNA treated cells compared to mock-treated cells ([3]; MDA, FIG. 9A-9H): increased sensitivity |
| CC(=O)O[C@H]1C(=O)[C@@]2(C)[C@H]([C@H](OC(=O)c3ccccc3)[C@]3(O)C[C@H](OC(=O)[C@H](O)[C@@H](NC(=O)c4ccccc4)c4ccccc4)C(C)=C1C3(C)C)[C@]1(OC(C)=O)CO[C@@H]1C[C@@H]2O [Taxol] | more sensitive | 2.62 nM | 30.0 x | 0.895 nM | 1.82 nM | 0.536 nM | 1.09 nM | 1.7 x | 200 nM | 316 nM | 8.32 nM | 19.2 nM | 515 nM | 301 nM | 4.38 nM | 12.7 nM | 2.6 x | – | 1.5 x | more sensitive | increase in sensitivity to drug as compared to controls ([1]; MCF-7 cells treated with prohibitin siRNA, FIG. 15B): 30 fold; IC50 ([3]; Table 5 experiment): 5.11 nM; IC50 ([3]; Table 6 experiment): 10.8 nM; EC50 ([3]; Table 5 experiment): 6.55 nM; EC50 ([3]; Table 6 experiment): 6.19 nM; fold change of EC50, Prohibitin vs Control ([3]; Table 5 experiment, direction IS/IR in same cell (E18)): 1.3 x; fold change of EC50, Prohibitin vs Control ([3]; Table 6 experiment, direction IS/IR in same cell (E24)): 1.7 x; fold change of EC50, Prohibitin vs Control [3, 7]: 1.9 x; sensitivity to drug of prohibitin siRNA treated cells compared to mock controls ([3]; MDA, FIGS. 12A-12D): increased sensitivity; sensitivity to drug of prohibitin siRNA treated cells compared to mock controls ([3]; MDA, FIGS. 13A-13H): increased the sensitivity |
